Reference: patent publication US10112926B2 (priority 2014, dated 2018)
Where a name gives a salt, the structure may show the parent alone.

Tests used:
[1] = target: PI 3-kinase alpha (Homo sapiens (Human), UniProt P42336); conditions: read-out: Assay A PI3Kα IC50
[2] = target: PI 3-kinase beta (Homo sapiens (Human), UniProt P42338); conditions: read-out: Assay B PI3Kβ IC50
[3] = target: Vps34 (Homo sapiens (Human), UniProt Q8NEB9); conditions: read-out: Assay C VPS34 IC50
[4] = target: PI 4-kinase beta (Homo sapiens (Human), UniProt Q9UBF8); conditions: read-out: Assay D PI4Kβ IC50
PI 4-kinase beta, sequence (Q9UBF8 whole entry): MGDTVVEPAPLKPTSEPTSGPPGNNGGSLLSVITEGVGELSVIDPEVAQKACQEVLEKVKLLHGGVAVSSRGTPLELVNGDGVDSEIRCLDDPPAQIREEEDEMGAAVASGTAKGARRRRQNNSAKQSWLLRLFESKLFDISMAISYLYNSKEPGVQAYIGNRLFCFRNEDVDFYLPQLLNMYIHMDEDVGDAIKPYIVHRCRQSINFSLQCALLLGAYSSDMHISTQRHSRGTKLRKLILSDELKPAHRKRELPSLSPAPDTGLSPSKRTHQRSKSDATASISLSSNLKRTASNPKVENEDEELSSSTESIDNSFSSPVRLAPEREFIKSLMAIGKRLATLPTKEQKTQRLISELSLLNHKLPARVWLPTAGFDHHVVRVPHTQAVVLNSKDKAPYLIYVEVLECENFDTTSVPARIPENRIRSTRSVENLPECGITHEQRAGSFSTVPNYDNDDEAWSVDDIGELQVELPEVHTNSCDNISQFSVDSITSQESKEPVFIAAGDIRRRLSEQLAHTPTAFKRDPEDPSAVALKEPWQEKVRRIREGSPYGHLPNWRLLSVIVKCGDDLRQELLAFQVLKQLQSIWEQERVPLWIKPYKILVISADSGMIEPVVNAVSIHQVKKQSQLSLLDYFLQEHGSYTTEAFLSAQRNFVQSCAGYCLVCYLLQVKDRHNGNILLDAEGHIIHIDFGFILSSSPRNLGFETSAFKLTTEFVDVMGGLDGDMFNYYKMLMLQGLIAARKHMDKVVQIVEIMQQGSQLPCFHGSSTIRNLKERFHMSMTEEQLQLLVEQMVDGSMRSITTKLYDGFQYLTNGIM

[5] = target: mTOR (Homo sapiens (Human), UniProt P42345); conditions: read-out: Assay G mTOR IC50

PI 3-kinase beta, sequence (P42338 whole entry, looked up): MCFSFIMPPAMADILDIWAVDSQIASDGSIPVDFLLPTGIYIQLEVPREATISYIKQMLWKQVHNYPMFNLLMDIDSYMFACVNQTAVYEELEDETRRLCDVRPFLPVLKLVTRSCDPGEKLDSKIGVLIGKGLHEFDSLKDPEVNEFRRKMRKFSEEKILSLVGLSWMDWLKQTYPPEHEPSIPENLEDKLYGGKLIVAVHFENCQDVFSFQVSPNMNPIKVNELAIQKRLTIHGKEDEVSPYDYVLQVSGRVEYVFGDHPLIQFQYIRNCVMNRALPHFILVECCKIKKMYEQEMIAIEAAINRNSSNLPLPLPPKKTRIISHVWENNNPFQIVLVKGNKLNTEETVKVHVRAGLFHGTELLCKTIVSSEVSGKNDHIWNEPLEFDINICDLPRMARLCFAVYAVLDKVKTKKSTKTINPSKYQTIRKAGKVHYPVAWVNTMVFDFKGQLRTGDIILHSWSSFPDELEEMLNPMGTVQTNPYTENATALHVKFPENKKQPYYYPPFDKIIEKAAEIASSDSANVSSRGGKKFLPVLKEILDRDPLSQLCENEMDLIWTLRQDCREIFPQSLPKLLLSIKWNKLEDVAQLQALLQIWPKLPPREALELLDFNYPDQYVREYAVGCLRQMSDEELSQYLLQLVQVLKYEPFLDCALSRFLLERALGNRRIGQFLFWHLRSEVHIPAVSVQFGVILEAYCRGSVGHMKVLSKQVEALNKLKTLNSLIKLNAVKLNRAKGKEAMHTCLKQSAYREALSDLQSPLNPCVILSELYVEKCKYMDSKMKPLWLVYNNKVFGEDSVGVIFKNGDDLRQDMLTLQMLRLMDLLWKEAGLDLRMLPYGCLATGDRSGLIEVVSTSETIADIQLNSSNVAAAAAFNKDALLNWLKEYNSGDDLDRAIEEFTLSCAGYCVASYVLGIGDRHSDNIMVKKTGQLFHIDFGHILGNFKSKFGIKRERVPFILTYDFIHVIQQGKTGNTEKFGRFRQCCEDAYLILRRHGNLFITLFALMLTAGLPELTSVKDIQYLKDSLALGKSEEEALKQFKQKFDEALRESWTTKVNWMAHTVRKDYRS
PI 3-kinase beta, sequence (P27986 whole entry partner, looked up): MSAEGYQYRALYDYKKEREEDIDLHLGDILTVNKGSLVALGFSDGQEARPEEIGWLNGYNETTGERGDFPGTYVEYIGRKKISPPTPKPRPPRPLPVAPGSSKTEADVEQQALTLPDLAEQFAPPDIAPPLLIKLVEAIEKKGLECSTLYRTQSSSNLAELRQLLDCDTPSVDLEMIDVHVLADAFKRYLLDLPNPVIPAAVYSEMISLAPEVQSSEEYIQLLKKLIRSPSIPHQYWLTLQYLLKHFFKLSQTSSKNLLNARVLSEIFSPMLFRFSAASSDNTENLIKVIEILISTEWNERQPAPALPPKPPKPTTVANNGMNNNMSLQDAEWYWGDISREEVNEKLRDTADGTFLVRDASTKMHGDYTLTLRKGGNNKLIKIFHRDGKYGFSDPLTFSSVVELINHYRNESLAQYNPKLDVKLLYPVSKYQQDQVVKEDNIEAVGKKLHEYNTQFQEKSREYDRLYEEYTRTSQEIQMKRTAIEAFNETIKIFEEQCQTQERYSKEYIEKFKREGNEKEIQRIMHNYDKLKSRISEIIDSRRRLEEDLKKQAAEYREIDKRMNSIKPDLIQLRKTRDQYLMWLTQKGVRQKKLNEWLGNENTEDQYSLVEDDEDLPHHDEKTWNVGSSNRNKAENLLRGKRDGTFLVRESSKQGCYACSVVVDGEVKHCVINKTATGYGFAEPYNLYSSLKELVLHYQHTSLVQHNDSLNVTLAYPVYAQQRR
PI 3-kinase alpha, sequence (P42336 whole entry, looked up): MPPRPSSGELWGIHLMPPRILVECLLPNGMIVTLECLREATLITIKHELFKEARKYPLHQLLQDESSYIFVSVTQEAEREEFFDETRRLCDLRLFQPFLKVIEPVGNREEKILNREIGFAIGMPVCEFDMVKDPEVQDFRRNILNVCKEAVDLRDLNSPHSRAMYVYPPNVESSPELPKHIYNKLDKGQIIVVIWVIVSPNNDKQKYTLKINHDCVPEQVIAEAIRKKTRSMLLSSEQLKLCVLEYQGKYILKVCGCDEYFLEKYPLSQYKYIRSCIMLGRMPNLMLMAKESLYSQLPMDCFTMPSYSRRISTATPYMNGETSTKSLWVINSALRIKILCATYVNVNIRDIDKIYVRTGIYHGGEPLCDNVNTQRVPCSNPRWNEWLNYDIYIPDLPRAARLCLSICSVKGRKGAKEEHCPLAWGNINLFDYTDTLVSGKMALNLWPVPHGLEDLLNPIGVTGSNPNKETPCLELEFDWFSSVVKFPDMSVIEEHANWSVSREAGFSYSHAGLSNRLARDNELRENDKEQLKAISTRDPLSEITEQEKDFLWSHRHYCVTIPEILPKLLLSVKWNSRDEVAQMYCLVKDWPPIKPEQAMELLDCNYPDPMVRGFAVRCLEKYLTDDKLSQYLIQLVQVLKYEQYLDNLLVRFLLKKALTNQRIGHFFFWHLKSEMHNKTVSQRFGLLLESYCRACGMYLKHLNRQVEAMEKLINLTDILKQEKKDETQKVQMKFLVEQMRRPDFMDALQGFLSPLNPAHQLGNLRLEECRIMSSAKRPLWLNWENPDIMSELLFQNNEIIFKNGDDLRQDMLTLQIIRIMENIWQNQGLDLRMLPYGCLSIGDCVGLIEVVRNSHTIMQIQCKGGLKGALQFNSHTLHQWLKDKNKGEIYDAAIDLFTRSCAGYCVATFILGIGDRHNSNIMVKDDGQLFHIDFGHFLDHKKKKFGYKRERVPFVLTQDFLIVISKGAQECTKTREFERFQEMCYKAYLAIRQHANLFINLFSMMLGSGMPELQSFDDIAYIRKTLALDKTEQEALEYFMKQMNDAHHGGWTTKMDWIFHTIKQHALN
PI 3-kinase alpha, sequence (P27986 whole entry partner, looked up): as the sequence (P27986 whole entry partner, looked up) above
Vps34, sequence (Q8NEB9 whole entry): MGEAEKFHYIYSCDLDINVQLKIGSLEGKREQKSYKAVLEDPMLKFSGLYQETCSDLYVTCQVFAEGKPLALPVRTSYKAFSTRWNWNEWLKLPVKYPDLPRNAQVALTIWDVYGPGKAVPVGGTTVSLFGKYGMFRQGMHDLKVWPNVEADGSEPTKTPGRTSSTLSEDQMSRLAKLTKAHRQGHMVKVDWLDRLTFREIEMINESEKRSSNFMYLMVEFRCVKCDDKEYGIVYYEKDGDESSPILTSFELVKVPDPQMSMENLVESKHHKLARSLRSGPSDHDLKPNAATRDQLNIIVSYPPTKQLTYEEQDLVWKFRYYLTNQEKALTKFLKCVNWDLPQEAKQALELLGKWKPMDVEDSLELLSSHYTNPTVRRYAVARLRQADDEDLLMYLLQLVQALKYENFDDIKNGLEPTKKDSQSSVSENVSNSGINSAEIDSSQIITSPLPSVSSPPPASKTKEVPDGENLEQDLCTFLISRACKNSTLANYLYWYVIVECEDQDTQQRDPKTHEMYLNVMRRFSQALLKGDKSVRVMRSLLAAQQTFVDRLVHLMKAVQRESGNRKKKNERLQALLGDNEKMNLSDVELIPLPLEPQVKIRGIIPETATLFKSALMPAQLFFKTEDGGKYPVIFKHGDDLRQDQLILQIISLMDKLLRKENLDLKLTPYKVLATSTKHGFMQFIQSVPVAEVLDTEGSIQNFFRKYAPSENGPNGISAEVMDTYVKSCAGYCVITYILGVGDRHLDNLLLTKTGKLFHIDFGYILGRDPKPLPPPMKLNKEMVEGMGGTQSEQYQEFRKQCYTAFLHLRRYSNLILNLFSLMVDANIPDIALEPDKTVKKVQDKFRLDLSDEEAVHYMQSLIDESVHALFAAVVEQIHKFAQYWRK

SMILES	IC50 [1] [µM]	IC50 [2] [µM]	IC50 [3] [µM]	IC50 [4] [µM]	IC50 [5] [µM]
Cc1ccc(S(=O)(=O)N[C@H]2CC[C@H](O)CC2)cc1-c1cnc(N)c(-c2cnn(C)c2)c1 [Example 4.1, trans 3-(6-Amino-5-(1-methyl-1H-pyrazol-4-yl)pyridin-3-yl)-N-(4-hydroxycyclohexyl)-4-methylbenzene-sulfonamide]	0.28	1.6	6.6	3.9	9.5
Cc1cc(-c2cc(-c3cc(S(=O)(=O)N[C@H]4CC[C@H](O)CC4)ccc3C)cnc2N)ccn1 [Example 4.3, trans 3-(2-Amino-2′-methyl-[3,4′-bipyridin]-5-yl)-N-(4-hydroxycyclohexyl)-4-methyl-benzenesulfonamide]	0.26	7.2	> 10	1.7	7.3
Cc1cc(-c2cc(-c3cc(S(=O)(=O)N[C@H]4CC[C@H](O)CC4)ccc3C)cnc2N)on1 [Example 5.4, trans 3-(6-Amino-5-(3-methylisoxazol-5-yl)pyridin-3-yl)-N-(-4-hydroxycyclohexyl)-4-methylbenzenesulfon-amide hydrochloride]	0.25		> 10		
Cc1nnc(-c2cc(-c3cc(S(=O)(=O)NCCC(C)(C)O)ccc3C)cnc2N)o1 [Example 5.6, 3-(6-Amino-5-(5-methyl-1,3,4-oxa-diazol-2-yl)pyridin-3-yl)-N-(3-hydroxy-3-methylbutyl)-4-methylbenzenesulfon-amide]	0.7	4.5	> 10	7.8	> 10
Cc1cc(-c2cc(-c3cc(S(=O)(=O)N4CC[C@H](N(C)C)C4)ccc3C)cnc2N)on1 [Example 19.22, (S)-5-(5-((3-(dimethylamino)pyrrolidin-1-yl)sulfonyl)-2-methylphenyl)-3-(3-methylisoxazol-5-yl)pyridin-2-amine acetic acid salt]	2	5.8	> 10	8.6	
Cc1ccc(S(=O)(=O)NC2CC3(CC(O)C3)C2)cc1-c1cnc(N)c(-c2cn(C)nc2C)c1 (centres unmarked) [Example 26, 3-(6-Amino-5-(1,3-dimethyl-1H-pyrazol-4-yl)pyridin-3-yl)-N-(6-hydroxyspiro[3.3]heptan-2-yl)-4-methylbenzenesulfonamide]	0.22	3	> 10	3.4	0.32
Cc1ncc(-c2cc(-c3cc(S(=O)(=O)NC4CC5(CC(O)C5)C4)ccc3C)cnc2N)s1 (centres unmarked) [Example 28, 3-(6-Amino-5-(2-methylthiazol-5-yl)pyridin-3-yl)-N-(6-hydroxyspiro[3.3]heptan-2-yl)-4-methylbenzenesulfonamide]	0.05	0.45	2	0.68	
Cc1cccc(NS(=O)(=O)c2ccc(C)c(-c3cnc(N)c(-c4cnn(C)c4)c3)c2)n1 [Example 30, 3-(6-Amino-5-(1-methyl-1H-pyrazol-4-yl)pyridin-3-yl)-4-methyl-N-(6-methylpyridin-2-yl)benzenesulfonamide]	0.33	1.5	> 10	3.1	4.7
Cc1noc(-c2cc(-c3cc(S(=O)(=O)N[C@@H]4CCNC(=O)C4)ccc3C)cnc2N)n1 [Example 37.25, (R)-3-(6-Amino-5-(3-methyl-1,2,4-oxadiazol-5-yl)pyridin-3-yl)-4-methyl-N-(2-oxopiperidin-4-yl)benzenesulfonamide]	3.8	> 10	> 10	> 10	> 10
Cc1cc(-c2cc(-c3cc(S(=O)(=O)N4CC(C)(O)C4)ccc3C)cnc2N)on1 [Example 37.28, 1-((3-(6-Amino-5-(3-methylisoxazol-5-yl)pyridin-3-yl)-4-methylphenyl)sulfonyl)-3-methylazetidin-3-ol]		3.8	> 10	2.8	
Cc1noc(-c2cc(-c3cc(S(=O)(=O)NCCN)ccc3C)cnc2N)n1 [Example 37.29, 3-(6-Amino-5-(3-methyl-1,2,4-oxadiazol-5-yl)pyridin-3-yl)-N-(2-aminoethyl)-4-methylbenzenesulfonamide]	0.91	0.91	> 10	7.1	> 10
Cc1cc(-c2cc(-c3cc(S(=O)(=O)NCC(F)(F)F)ccc3C)cnc2N)on1 [Example 39, 3-(6-Amino-5-(3-methylisoxazol-5-yl)pyridin-3-yl)-4-methyl-N-(2,2,2-trifluoroethyl)benzenesulfonamide]	0.45	3.7	> 10	1.3	
Cc1cc(-c2cc(-c3cc(S(=O)(=O)NC[C@@H]4CCCO4)ccc3C)cnc2N)on1 [Example 40, (S)-3-(6-Amino-5-(3-methylisoxazol-5-yl)pyridin-3-yl)-4-methyl-N-((tetrahydrofuran-2-yl)methyl)benzenesulfonamide]		4	> 10	3.2	
Cc1cnn(-c2cc(-c3cc(S(=O)(=O)NCC(C)(C)O)ccc3C)cnc2N)c1 [Example 60, 3-(6-Amino-5-(4-methyl-1H-pyrazol-1-yl)pyridin-3-yl)-N-(2-hydroxy-2-methylpropyl)-4-methylbenzenesulfonamide]		> 10	> 10		> 10
Cc1ncc(-c2cc(-c3cc(S(=O)(=O)NCC4COC4)ccc3C)cnc2N)s1 [Example 83.2, 3-(6-Amino-5-(2-methylthiazol-5-yl)pyridin-3-yl)-4-methyl-N-(oxetan-3-ylmethyl)benzenesulfonamide]	0.4	6.2	6.2	2.4	
Cc1ncc(-c2cc(-c3cc(S(=O)(=O)NCC(C)(C)CO)ccc3C)cnc2N)s1 [Example 83.4, 3-(6-Amino-5-(2-methylthiazol-5-yl)pyridin-3-yl)-N-(3-hydroxy-2,2-dimethylpropyl)-4-methylbenzenesulfonamide]	0.35	2.1	2.2	1.3	
Cc1ncc(-c2cc(-c3cc(S(=O)(=O)NCCO)ccc3C)cnc2N)s1 [Example 83.5, 3-(6-Amino-5-(2-methylthiazol-5-yl)pyridin-3-yl)-N-(2-hydroxyethyl)-4-methylbenzenesulfonamide]	0.43	3.4	5.2	2.8	
Cc1ncc(-c2cc(-c3cc(S(=O)(=O)N[C@H]4CC[C@H](O)CC4)ccc3C)cnc2N)s1 [Example 97, 3-(6-amino-5-(2-methylthiazol-5-yl)pyridin-3-yl)-N-((1r,4r)-4-hydroxycyclohexyl)-4-methylbenzenesulfonamide]			3.8	1.34	6.5
Cc1ncc(-c2cc(-c3cc(S(=O)(=O)NCC4CCCOC4)ccc3C)cnc2N)o1 (centres unmarked) [Example 104.8, 3-(6-amino-5-(2-methyloxazol-5-yl)pyridin-3-yl)-4-methyl-N-((tetrahydro-2H-pyran-3-yl)methyl)benzenesulfon-amide]		0.8	4.8	2	
Cc1ccc(S(=O)(=O)NCCC(C)(C)O)cc1-c1cnc(N)c(-c2cnn(C)n2)c1 [Example 106, 3-(6-amino-5-(2-methyl-2H-1,2,3-triazol-4-yl)pyridin-3-yl)-N-(3-hydroxy-3-methylbutyl)-4-methylbenzenesulfonamide]			> 10	6.4	7.6
Cc1ncc(-c2cc(-c3cc(S(=O)(=O)N[C@H]4CCC[C@H](O)C4)ccc3C)cnc2N)o1 [Example 112, 3-(6-amino-5-(2-methyloxazol-5-yl)pyridin-3-yl)-N-((1S,3S)-3-hydroxycyclohexyl)-4-methylbenzenesulfonamide]	0.14	0.66	3.5	0.73	
Cc1noc(-c2cc(-c3cc(S(=O)(=O)NCC(C)(C)O)c(C)cc3F)cnc2N)n1 [Example 113, 5-(6-amino-5-(3-methyl-1,2,4-oxadiazol-5-yl)pyridin-3-yl)-4-fluoro-N-(2-hydroxy-2-methylpropyl)-2-methylbenzenesulfonamide]	1.15	8.85	> 10		
Cc1ncc(-c2cc(-c3cc(S(=O)(=O)NCC4(O)CC4)ccc3C)cnc2N)o1 [Example 114.1, 3-(6-amino-5-(2-methyloxazol-5-yl)pyridin-3-yl)-N-((1-hydroxycyclopropyl)methyl)-4-methylbenzenesulfon-amide]	0.25		3.4	4.5	
Cc1ncc(-c2cc(-c3cc(S(=O)(=O)NC(CO)C(F)(F)F)ccc3C)cnc2N)o1 (centres unmarked) [Example 114.2, 3-(6-amino-5-(2-methyloxazol-5-yl)pyridin-3-yl)-4-methyl-N-(1,1,1-trifluoro-3-hydroxypropan-2-yl)benzenesulfonamide]	0.41	2.8	4.4	2.3	
Cc1ncc(-c2cc(-c3cc(S(=O)(=O)NCC4(O)CCOCC4)ccc3C)cnc2N)o1 [Example 114.3, 3-(6-amino-5-(2-methyloxazol-5-yl)pyridin-3-yl)-N-((4-hydroxytetrahydro-2H-pyran-4-yl)methyl)-4-methylbenzenesulfon-amide]	0.59	8.4	> 10	8.1	
Cc1ncc(-c2cc(-c3cc(S(=O)(=O)NC4CCC(O)(C(F)(F)F)C4)ccc3C)cnc2N)o1 (centres unmarked) [Example 114.4, 3-(6-amino-5-(2-methyloxazol-5-yl)pyridin-3-yl)-N-(3-hydroxy-3-(trifluoromethyl)cyclo-pentyl)-4-methylbenzenesulfon-amide]	0.08	1.2	1.2	0.63	
